{"source": "patent US20160058771A1", "about": "“ALPHA-2 ADRENOCEPTOR AND SIGMA RECEPTOR LIGAND COMBINATIONS” (LABORATORIOS DEL DR. ESTEVE, S.A., priority 2013, published 2016)", "key": {"male Swiss CD-1 mice [1]": {"system": "male Swiss CD-1 mice", "assay": "Hot-plate test (50° C., latency to hind paw licking)", "format": "in vivo", "conditions": "for analgesic effect (latency to hind paw licking): vs control, FIG. 6", "description": "The hot plate is another classical test of acute thermal nociception. This test consists of introducing mice into an open-ended cylindrical space with a floor consisting of a metallic plate that is heated to a constant temperature. Typical behavioural responses in mice are paw-licking and jumping (Le Bars et al., 2001)\nMale Swiss CD-1 mice weighing between 30 and 35 g (Charles River, Barcelona, Spain) were used for all the experiments. The drugs evaluated were the Sigma ligand Compound 63.HCl and the alpha-2 adrenergic agonists clonidine, guanfacine, and dexmedetomidine. Compound 63.HCl was injected intraperitoneally (i.p.) in a volume of 10 ml/kg in 0.5% hydroxypropyl methyl cellulose (HPMC), whereas clonidine, guanfacine and dexmedetomidine were administrated subcutaneously (s.c.) in saline, in a volume of 5 ml/kg. Control animals received the same volume of vehicle. The hot plate test was done 30 min after compound's administration. Mice were placed individually on the hot-plate at 50° C. and the reaction time starting from the placement of the mouse on the hot plate to the time of hind paw licking (HPL) was measured with a stopwatch. An independent untreated group of animals from each strain was used to evaluate the basal latencies and five times those values were chosen as the cut-off time to avoid tissue damage.\nData were expressed as means±S.E.M of the paw withdrawal latency (s).\n(§1) In order to generate dose-response curves, raw data were converted to % maximum possible antinociceptive effect using the following equation:\n(§2) % MPE=[(TL−VL)/(Cut off−VL)]·100\nwhere MPE: maximum possible antinociceptive effect; TL: test latencies and VL: vehicle latency. 3.1. Effect of the Sigma Ligands Compound 63.HCl Alone or Combined with the Alpha-2 Agonist Clonidine"}, "male Swiss CD-1 mice [2]": {"system": "male Swiss CD-1 mice", "assay": "Tail-flick test (radiant heat, acute thermal pain)", "format": "in vivo", "method": "Tail-flick test is a classical model of acute thermal pain (D'Amour and Smith, 1941) Pain sensitivity is measured in response to a radiant heat beam focused on the mouse tail. Latency to the first pain response is recorded as a measure of thermal pain sensitivity. The withdrawal is a classic nocifensive reflex that removes the body apart from the source of pain.\nMale Swiss CD-1 mice weighing between 30 and 35 g (Charles River, Barcelona, Spain) were used for all the experiments. The drugs evaluated were compound 63.HCl and clonidine hydrochloride and guanfacine, as alpha-2 adrenergic agonists. Compound 63.HCl was injected intraperitoneally (i.p.) in a volume of 10 ml/kg in 0.5% hydroxypropyl methyl cellulose (HPMC) and clonidine or guanfacine were administered subcutaneously (s.c.) dissolved in isotonic saline (0.9% NaCl) solution, in a volume of 5 ml/kg. Control animals received the same volume of vehicle.\nAntinociception was assessed using the radiant heat tail-flick test as described by Moncada et al., 2003. Briefly, the animals were restrained in a Plexiglas tube and placed on the tail-flick apparatus. The radiant heat source was focused on the proximal portion of the tail at about […] of the tip. Vehicle tail-flick latency (VL) was determined using a stimulus intensity adjusted to elicit a mean reaction time in the range of 2-4 s. Following vehicle or compound administration, test latencies (TL) were obtained at 30 min. A cut off time of 10 s was employed in order to prevent tissue damage. All experiments were performed under blind conditions.\nData were expressed as means±S.E.M of the […] (s.).\nas §1, §2\nwhere MPE: maximum possible antinociceptive effect; TL: test latencies and VL: vehicle latency. 2.1. Effects of the Compound 63.HCl Alone or Combined with the Alpha-2 Agonist Clonidine"}}, "note": "Entries after “also recorded” stand apart in the source; their conditions may differ. Counter-ions that a name gives are not always drawn.", "data": [{"smiles": "Clc1cccc(Cl)c1N=C1NCCN1", "note": "[clonidine]", "values": [{"measurement": "ED50", "setting": "male Swiss CD-1 mice [1]; Mus musculus, clonidine alone, sc, 0.125-1 mg/kg, FIG. 5, read-out: ED50 (50% effective dose of clonidine)", "result": 0.3, "unit": "mg/kg"}, {"measurement": "ED50", "setting": "male Swiss CD-1 mice [2]; Mus musculus, clonidine alone, sc, 0.125-1 mg/kg, % MPE dose-response, FIG. 2, read-out: ED50 (50% effective dose of clonidine)", "result": 0.18, "unit": "mg/kg"}]}, {"smiles": "Cc1cc(OCCN2CCOCC2)nn1-c1ccc2ccccc2c1", "note": "[compound 63.HCl, 4-{2-[5-methyl-1-(naphthalen-2-yl)-1H-pyrazol-3-yloxy]ethyl}morpholine hydrochloride]", "values": [{"measurement": "effect on the dose-response curve of clonidine", "setting": "male Swiss CD-1 mice [1]; Compound 63.HCl 40 mg/kg ip with clonidine 0.125-1 mg/kg sc, displacement to the left of the curve, FIG. 5", "result": "potentiated the antinociceptive effect of clonidine"}, {"measurement": "antinociceptive effect (latency to hind paw licking)", "setting": "male Swiss CD-1 mice [1]; Compound 63.HCl alone 40 mg/kg ip, 30 min before test, FIG. 4, FIG. 5, hydrochloride", "result": "failed to produce a statistically significant antinociceptive effect; also recorded: showed no activity"}, {"measurement": "effect on the dose-response curve of clonidine", "setting": "male Swiss CD-1 mice [2]; compound 63.HCl 40 mg/kg ip with clonidine 0.125-1 mg/kg sc, displacement to the left of the curve, FIG. 2", "result": "potentiates the antinociceptive effect of clonidine"}, {"measurement": "antinociceptive effect (tail withdrawal latency)", "setting": "male Swiss CD-1 mice [2]; compound 63.HCl alone, 5, 10 and 40 mg/kg ip, 30 min before test, vs vehicle, FIG. 1", "result": "failed to produce a statistically significant antinociceptive effect"}]}, {"smiles": "Cc1cccc([C@H](C)c2cnc[nH]2)c1C", "note": "[dexmedetomidine]", "values": [{"measurement": "analgesic effect (latency to hind paw licking)", "setting": "male Swiss CD-1 mice [1]; dexmedetomidine alone 0.01 mg/kg s.c.", "result": "not effective compared to control group"}]}, {"smiles": "N=C(N)NC(=O)Cc1c(Cl)cccc1Cl", "note": "[guanfacine]", "values": [{"measurement": "analgesic effect (latency to hind paw licking)", "setting": "male Swiss CD-1 mice [1]; guanfacine alone 5 mg/kg s.c.", "result": "not effective compared to control group"}, {"measurement": "analgesic effect (tail withdrawal latency)", "setting": "male Swiss CD-1 mice [2]; guanfacine alone 1.25 mg/kg s.c., vs vehicle, FIG. 3", "result": "not effective compared to vehicle"}]}]}
